In ChEMBL document CHEMBL1201862, “PubChem BioAssay data set” (2004):
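All cell lines were grown in 96-well plates and treated with compound for 48 hours. GI50 marks 50% less growth.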 Activity calls are given as the source filed them. Cut-off read from the data, not from the text of the source: active = GI50 up to about 1.1 µM and inactive = higher.

How the values were obtained:
Experiment in all cases: DTP human tumour cell line panel, 48 h
SK-MEL-5 = system: SK-MEL-5
A549 = system: A549
OVCAR-4 = system: OVCAR-4
SR = system: SR
M14 = system: M14
NCI-H226 = system: NCI-H226
SNB-75 = system: SNB-75
OVCAR-5 = system: OVCAR-5
CCRF-CEM = system: CCRF-CEM
K562 = system: K562
HOP-62 = system: HOP-62
NCI-H522 = system: NCI-H522
MOLT-4 = system: MOLT-4
UACC-257 = system: UACC-257
HCT-116 = system: HCT-116
SN12C = system: SN12C
HT-29 = system: HT-29
SF-539 = system: SF-539
UO-31 = system: UO-31
DLD-1 = system: DLD-1

## [O-]c1c2c(nn1-c1ccc(F)cc1)c1ccccc1c[n+]2Cc1ccccc1
SK-MEL-5
  GI50: 3.96 µM (inactive)
A549
  GI50: 12.8 µM (inactive)
OVCAR-4
  GI50: 19.3 µM (inactive)
SR
  GI50: 1.55 µM (inactive)
M14
  GI50: 1.79 µM (inactive)
NCI-H226
  GI50: 16.6 µM (inactive)
SNB-75
  GI50: 23.3 µM (inactive)
OVCAR-5
  GI50: 11.9 µM (inactive)
CCRF-CEM
  GI50: 0.401 µM (active)
K562
  GI50: 0.687 µM (active)
HOP-62
  GI50: 16.5 µM (inactive)
NCI-H522
  GI50: 4.12 µM (inactive)
MOLT-4
  GI50: 5.45 µM (inactive)
UACC-257
  GI50: 11.5 µM (inactive)
HCT-116
  GI50: 16.4 µM (inactive)
SN12C
  GI50: 16.4 µM (inactive)
HT-29
  GI50: 10.2 µM (inactive)
SF-539
  GI50: 3.26 µM (inactive)
UO-31
  GI50: 10.2 µM (inactive)
DLD-1
  GI50: 11 µM (inactive)

## O=[N+]([O-])c1ccc(-c2ccc(-c3csc(Nc4ccccn4)n3)o2)cc1
OVCAR-4
  GI50: 4.76 µM (inactive)
SR
  GI50: > 100 µM (inactive)
M14
  GI50: 59.6 µM (inactive)
SNB-75
  GI50: > 100 µM (inactive)
OVCAR-5
  GI50: > 100 µM (inactive)
K562
  GI50: 66.5 µM (inactive)
HOP-62
  GI50: 31.2 µM (inactive)
NCI-H522
  GI50: > 100 µM (inactive)
MOLT-4
  GI50: > 100 µM (inactive)
UACC-257
  GI50: > 100 µM (inactive)
HCT-116
  GI50: 47.9 µM (inactive)
SN12C
  GI50: 41.4 µM (inactive)
HT-29
  GI50: > 100 µM (inactive)
UO-31
  GI50: > 100 µM (inactive)
DLD-1
  GI50: > 100 µM (inactive)

## Cc1nn(C(=O)Cc2ccccc2)c2c1C(c1ccc3ccccc3c1O)SC(=N)N2 (configuration not stated)
SK-MEL-5
  GI50: > 100 µM (inactive)
A549
  GI50: > 100 µM (inactive)
SR
  GI50: 48.9 µM (inactive)
M14
  GI50: > 100 µM (inactive)
NCI-H226
  GI50: > 100 µM (inactive)
SNB-75
  GI50: 52.1 µM (inactive)
CCRF-CEM
  GI50: 22.1 µM (inactive)
K562
  GI50: > 100 µM (inactive)
HOP-62
  GI50: > 100 µM (inactive)
NCI-H522
  GI50: 67.8 µM (inactive)
MOLT-4
  GI50: 37.8 µM (inactive)
UACC-257
  GI50: > 100 µM (inactive)
HCT-116
  GI50: > 100 µM (inactive)
SN12C
  GI50: > 100 µM (inactive)
HT-29
  GI50: > 100 µM (inactive)
SF-539
  GI50: > 100 µM (inactive)
UO-31
  GI50: 80 µM (inactive)
